Data: ChEMBL document CHEMBL2029277, “Discovery of XL413, a potent and selective CDC7 inhibitor” (Bioorg Med Chem Lett, 2012)

Legend:
[1] = molecular target: T1, Cell division cycle 7-related protein kinase (Homo sapiens, UniProt O00311); test: Inhibition of N-terminus Myc-tagged human CDC7 expressed in Escherichia coli by chemiluminescence assay in presence of ATP
[2] = molecular target: Casein kinase II alpha/beta (Homo sapiens, UniProt P68400); test: Inhibition of human tertrameric CK2alphabeta holoenzyme using casein as substrate after 1 to 2 hrs by chemiluminescence assay in presence of 2 uM ATP; type: protein-complex assay
Sequence of Casein kinase II alpha/beta (P67870 whole entry): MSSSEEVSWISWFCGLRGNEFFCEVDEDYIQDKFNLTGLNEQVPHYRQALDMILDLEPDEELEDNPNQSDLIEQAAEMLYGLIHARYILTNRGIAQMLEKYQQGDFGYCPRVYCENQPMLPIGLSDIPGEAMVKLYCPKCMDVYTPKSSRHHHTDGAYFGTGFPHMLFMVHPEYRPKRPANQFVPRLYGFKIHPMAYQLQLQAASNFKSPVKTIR
Sequence of Casein kinase II alpha/beta (P68400 whole entry): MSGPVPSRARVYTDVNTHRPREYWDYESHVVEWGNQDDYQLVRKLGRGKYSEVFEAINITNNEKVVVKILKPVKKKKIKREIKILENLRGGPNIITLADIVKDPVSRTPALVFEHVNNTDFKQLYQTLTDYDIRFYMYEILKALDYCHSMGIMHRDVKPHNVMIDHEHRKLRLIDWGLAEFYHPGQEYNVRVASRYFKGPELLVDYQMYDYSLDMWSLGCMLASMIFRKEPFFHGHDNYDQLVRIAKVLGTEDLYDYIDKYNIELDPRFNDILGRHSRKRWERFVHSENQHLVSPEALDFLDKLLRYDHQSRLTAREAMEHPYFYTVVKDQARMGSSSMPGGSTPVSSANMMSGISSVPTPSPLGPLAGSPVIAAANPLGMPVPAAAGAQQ

[3] = molecular target: Serine/threonine-protein kinase pim-1 (Homo sapiens, UniProt P11309); test: Inhibition of N-terminus His-tagged human PIM1 expressed in Escherichia coli using AKRRRLSA as substrate after 1 to 2 hrs by chemiluminescence assay
Sequence of Serine/threonine-protein kinase pim-1 (P11309 whole entry): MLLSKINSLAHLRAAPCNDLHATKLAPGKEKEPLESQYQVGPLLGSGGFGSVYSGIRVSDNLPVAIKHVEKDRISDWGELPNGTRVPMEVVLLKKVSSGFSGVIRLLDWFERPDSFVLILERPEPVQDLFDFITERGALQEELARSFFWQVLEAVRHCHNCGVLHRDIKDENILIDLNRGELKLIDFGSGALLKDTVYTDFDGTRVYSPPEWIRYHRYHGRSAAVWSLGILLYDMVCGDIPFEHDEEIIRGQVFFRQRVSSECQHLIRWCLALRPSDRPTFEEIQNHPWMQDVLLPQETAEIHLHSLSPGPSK

[4] = molecular target: T1, Cell division cycle 7-related protein kinase; test: Inhibition of CDC7 in human MDA-MB-231T cells assessed as inhibition of MCM2 phosphorylation at Ser53 after 4 hrs; type: cell-based
[5] = Plasma concentration in mouse at 100 mg/kg, po measured after 1 hr; type: ADME, organism-based; set-up: dose 100 mg/kg, route oral
[6] = Plasma concentration in mouse at 100 mg/kg, po measured after 4 hrs; type: ADME, organism-based; set-up: dose 100 mg/kg, route oral

T1 sequence (O00311 whole entry): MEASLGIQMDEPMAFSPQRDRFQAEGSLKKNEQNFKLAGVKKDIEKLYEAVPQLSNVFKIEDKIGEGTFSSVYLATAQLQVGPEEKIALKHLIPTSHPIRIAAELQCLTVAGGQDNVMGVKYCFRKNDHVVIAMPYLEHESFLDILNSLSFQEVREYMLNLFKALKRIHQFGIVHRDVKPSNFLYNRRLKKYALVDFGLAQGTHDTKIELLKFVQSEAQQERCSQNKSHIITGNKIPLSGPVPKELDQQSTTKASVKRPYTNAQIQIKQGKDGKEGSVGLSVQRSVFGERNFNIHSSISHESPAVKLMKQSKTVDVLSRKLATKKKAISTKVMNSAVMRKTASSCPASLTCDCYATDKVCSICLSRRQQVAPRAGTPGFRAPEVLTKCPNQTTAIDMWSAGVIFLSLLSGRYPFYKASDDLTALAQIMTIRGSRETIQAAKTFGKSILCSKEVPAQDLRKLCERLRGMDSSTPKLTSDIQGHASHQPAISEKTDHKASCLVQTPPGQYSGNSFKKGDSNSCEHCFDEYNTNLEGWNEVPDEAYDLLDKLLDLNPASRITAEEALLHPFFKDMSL

O=c1[nH]c(C2CNC2)nc2c1oc1ccc(Br)cc12
IC50 [1]: 0.0077 µM
IC50 [2]: 0.043 µM
IC50 [3]: 0.018 µM
IC50 [4]: 2.54 µM

O=c1[nH]c(CN2CC[C@H](O)C2)nc2c1oc1ccc3c(c12)OCO3
IC50 [1]: 14 µM

COc1ccc2oc3c(=O)[nH]c([C@@H]4CCCN4)nc3c2c1
IC50 [1]: 0.0061 µM
IC50 [2]: 0.238 µM
IC50 [3]: 0.077 µM
IC50 [4]: 1.37 µM

COc1ccc2oc3c(=O)[nH]c(CN4CC[C@H](O)C4)nc3c2c1
IC50 [1]: 9 µM

O=c1[nH]c([C@@H]2C[C@@H](F)CN2)nc2c1oc1ccc(Br)cc12
IC50 [1]: 0.0037 µM
IC50 [2]: 0.238 µM
IC50 [3]: 0.046 µM
IC50 [4]: 0.082 µM
concentration at 1 h [5]: 82 µM
concentration at 4 h [6]: 46 µM

O=c1[nH]c(CN2CC[C@H](O)C2)nc2c1oc1ccc(Cl)cc12
IC50 [1]: 2.2 µM

CN1CCC[C@H]1c1nc2c(oc3ccc(Br)cc32)c(=O)[nH]1
IC50 [1]: 0.0073 µM
IC50 [2]: 0.063 µM
IC50 [3]: 0.011 µM
IC50 [4]: 0.802 µM

O=c1[nH]c([C@H]2CCCN2)nc2c1oc1ccc(Br)cc12
IC50 [1]: 0.07 µM
IC50 [2]: 1.51 µM
IC50 [3]: 0.104 µM
IC50 [4]: 4.59 µM

O=c1[nH]c(C2CCNCC2)nc2c1oc1ccc(Br)cc12
IC50 [1]: 0.0062 µM
IC50 [2]: 0.05 µM
IC50 [3]: 0.022 µM
IC50 [4]: 1.43 µM

O=c1[nH]c(CN2CC[C@H](O)C2)nc2c1oc1cc(O)c(Br)cc12
IC50 [1]: 1 µM
concentration at 1 h [5]: 1.4 µM
concentration at 4 h [6]: 0.15 µM

O=c1[nH]cnc2c1oc1ccc(Br)cc12
IC50 [1]: 2 µM
IC50 [2]: 1.5 µM

O=C(O)C1CCN(Cc2nc3c(oc4ccc(Br)cc43)c(=O)[nH]2)C1 (racemic)
IC50 [1]: 0.013 µM
IC50 [2]: 0.049 µM
IC50 [3]: 0.142 µM
IC50 [4]: > 40 µM
